Experimental data as given in patent US11590101B2, “Use of a composition comprising 7-hydroxymatairesinol” (LINNEA S.A., priority 2017, dated 2023).

How the values were obtained:
[1] = tested on: microglia in the lesioned SNc; assay: Analysis of microglia polarization (CD32+ M1 / CD206+ M2); assay type: in vivo, rat; settings: POST group; vehicle mainly M1, no M2 detected
Procedure: The analysis of microglia polarization was performed by evaluating the percentage of CD32+ and CD206+ cells, respectively M1 and M2 phenotypes marker, of the total microglia cells in the lesioned SNc, using respectively CD32 or CD206 (Santa Cruz, 1:300) antibodies.
Since no significant differences in microglial activation were observed between vehicle-treated animals and animals that received HMR before the intra-striatal injection of 6-OHDA, microglia polarization was evaluated only in the groups treated with HMR after 6-OHDA infusion.

[2] = tested on: rodent model of Parkinson's disease-like nigrostriatal neurodegeneration caused by stereotaxic injection of 6-OHDA; assay: Nigrostriatal damage evaluation by TH immunohistochemistry in 6-OHDA model; assay type: in vivo, rat
[3] = HMR plasma levels assay (LC-MS/MS); assay type: in vivo; settings: rat, oral, rats fed 4 weeks with 5% sucrose enriched food with HMR (10 mg/Kg per day), all active treatment groups
Procedure: Concentration of HMR and its major metabolite enterolactone was measured in plasma samples (50 μL) from rats fed for 4 weeks with 5% sucrose enriched food with HMR, using an LC-MS/MS system (AP14500 Qtrap ABSciex).
Calibration curves in the range from 0.1 ng/mL to 100 ng/mL were obtained from measurements on control samples containing the pure analytes, prepared from stock solutions of HMR and enterolactone in MeOH at the concentration of 1 mg/mL. Said stock solutions were diluted in acetonitrile (ACN) at a concentration of 250 μg/mL, then working solutions were prepared by sequential dilution in ACN.
45 μL of plasma and 5 μL of working solution were added to 300 μL of an ACN solution containing the internal standard catechin (conc. 200 ng/mL). After mixing, samples were centrifuged for 5 min at 3000 g at 5° C., and injected into LC-MS/MS.
The plasma samples from the in vivo treatment were prepared subjecting 50 μl of sample to centrifugation for 5 min at 3000 g at 5° C., and were injected into LC-MS/MS.
Calibration curves allowed determining, by comparison, the amount of each analytes in the plasma samples obtained from the rats of the study.

[4] = Food consumption and body weight monitoring; assay type: in vivo, rat; settings: monitored daily throughout the experiments
From the text: Food consumption and body weight changes were monitored daily.

[5] = tested on: microglia in the lesioned SNc; assay: Neuroinflammation evaluation through microglia activation assessment (CD11b staining of lesioned SNc); assay type: in vivo, rat; parameters: key to Colburn's score (microglia morphology): Resting stage (score 0): microglial cells are ramified, well spaced-out, with a small cell body.; Stage 1 (score +): microglial cells are ramified, with a decreased intercellular space.; Stage 2 (score ++): microglial cells show a loss of ramification and increased density.; Stage 3 (score +++): microglial cells show short and think ramifications; settings: for Colburn's score (microglia morphology): control group ++
Procedure: The evaluation of the 6-OHDA induced neuroinflammation was carried out via immunofluorescent staining of coronal SNc sections of both HMR-treated and control animals.
Microglia activation was assessed by observing sections of the lesioned SNc stained for CD11 b, under low and medium magnification (20×-40×), both quantitatively, by counting the microglial cells in the lesioned SNc, and qualitatively, analysing the morphological changes of the cells.
Mouse anti CD11b (MCA275R, Serotec, 1:300) primary antibody was used to assess microglia activation and density in the SNc. Anti-TH primary antibody was added for localization and cell count. Goat anti-mouse AlexaFluor488 and goat anti-rabbit AlexaFluor594 (Life Sciences, 1:300) were used as secondary antibodies.
Cell count was performed by analysing three different SNc sections, chosen according to rostro-caudal coordinates.
Morphological changes mirroring the state of activation were scored according to the Colburn scale. Cell density was assessed by counting CD11 b+ cells from a stack of 16 pictures (in a 0.04 mm^2 frame, 1 μm-thick, 40× magnification) taken from three discrete areas of the same SNc section.
Colburn's scale takes into account four activation stages, which differ for the cells morphology and density, and are summarized below.
Resting stage (score 0): microglial cells are ramified, well spaced-out, with a small cell body.
Stage 1 (score +): microglial cells are ramified, with a decreased intercellular space.
Stage 2 (score ++): microglial cells show a loss of ramification and increased density.
Stage 3 (score +++): microglial cells show short and think ramifications.

[6] = Oxidative stress evaluation (plasma GSH/GSSG, Glutathione assay kit); assay type: in vivo, rat; settings: POST group; not reaching statistical significance
Procedure: Plasma levels of reduced (GSH) and oxidized (GSSG) glutathione were estimated by using a biochemical Glutathione assay kit (Cayman Chemical), as an index of antioxidant effect of HMR treatment.
Results were expressed as a GSH/GSSG ratio.
Since no significant difference in neuroinflammation was observed between vehicle-treated animals and animals that received HMR before the intra-striatal injection of 6-OHDA, oxidative stress was evaluated only in the groups treated with HMR after 6-OHDA infusion.

[7] = PRE group, day 28 post-surgery, same in HMR-treated and control animals

concentration at 4 weeks [3]: 0.92 ± 0.74 ng/mL
SMILES: COc1cc(CC2C(=O)OCC2C(O)c2ccc(O)c(OC)c2)ccc1O (centres unmarked) [HMR, 7-hydroxymatairesinol]
Microglia polarization phenotype (M1 CD32+ / M2 CD206+) [1]: mainly oriented toward the neuroprotective, M2 (CD11b+/CD206+) phenotype
Reduction of TH+ terminal loss in lesioned striatum versus control ([2]; POST group: HMR 10 mg/Kg per day for 4 weeks after 6-OHDA, day 28, p<0.05): about 32%
Reduction of the 6-OHDA induced loss of TH+ neurons in lesioned SNc versus vehicle ([2]; POST group: HMR 10 mg/Kg per day for 4 weeks after 6-OHDA, day 28, p=0.055): about 20%
TH+ neurons depletion in the SNc, lesioned side versus contralateral hemisphere [2, 7]: up to 55%
TH+ terminals loss in the striatum, lesioned side [2, 7]: ≤ 65%
Nigrostriatal damage (striatal or SNc level) versus vehicle-treated animals ([2]; PRE group: HMR 10 mg/Kg per day in food for 4 weeks before 6-OHDA): no differences in nigrostriatal damage
Food intake or weight gain, treated versus untreated rats [4]: No differences
Colburn's score (microglia morphology) ([5]; POST group (HMR after 6-OHDA)): +
Density of CD11b+ cells in the SNc ([5]; POST group, vehicle-treated group 750 cells/mm^2, significant decrease): 550 cells/mm^2
Microglial cell count versus vehicle-treated animals ([5]; PRE group): no differences in the microglial cell count
Colburn's score (microglia morphology) ([5]; PRE group (HMR before 6-OHDA)): ++
Number of CD11b+ cells per mm^2 of SNc ([5]; PRE group, average, both HMR and vehicle groups): 750 cells/mm^2
Plasma GSH/GSSG ratio versus vehicle-treated animals [6]: trend toward an increased GSH/GSSG ratio
